Test results as given in paper PMC8072890, “Aminoalkylamides of Eremomycin Exhibit an Improved Antibacterial Activity” (Pharmaceuticals, 2021).
≈ marks a conversion by molar mass, not a printed value. Where two headings read alike, the source gives them in different places. Marks after values point to notes of the source that are not given here.

How the values were obtained:
[1] = Acute toxicity, single IV injection in mice; format: in vivo, F1 (CBAxC57Bl) mice; details: for therapeutic index (TI = LD50/ED50): laboratory animals (mice), IV, LD50 acute toxicity / ED50 staphylococcal sepsis
Method: The F1 (CBAxC57Bl) mice (18–20 g) were randomized into groups (n = 6) and received eremomycin N-(2-((2-fluorobenzyl)amino)ethyl)amide 4e through single intravenous injections. The intact animals were used as the control. The substance was dissolved in a 5% glucose solution and was administrated in dosage ranges of 130–200 mg/kg into the tail veins of the mice. The concentration of 4e in the injected solution was 5 mg/mL.
The acute toxicity was estimated by the mortality and survival time, as well as by the body weight gain/loss, food consumption, and clinical symptoms of intoxication, including behavioral reactions. […] The LD50 values and the maximum tolerated doses (MTD = LD10) were calculated using the method of Litchfield and Wilcoxon using the StatPlus Professional 3.8.0 software.

[2] = system: S. aureus (strain 10, clinical isolate); assay: Mouse staphylococcal sepsis model, single IV administration; format: in vivo, mice (SHK colony); details: for Survival: 30 min after infection, n = 10; for ED50: mice infected IV with lethal dose of S. aureus (8 × 10^8 CFU/mouse), single IV dose 30 min after infection, n = 10 per group, observed 14 days, Behrens method
Method: A comparative study of the efficacy of eremomycin N-(2-((2-fluorobenzyl)amino)ethyl)amide (4e) and vancomycin was carried out in a mice staphylococcal sepsis model. Healthy female mice of the SHK colony weighing 20–22 g after two-week quarantine were randomized into groups (n = 10) and received S. aureus as the infectious agent (strain 10, clinical isolate, adapted for growth in vivo by five-fold passaging in mice). In the experiment, female mice of the SHK colony weighing 20–22 g were used. S. aureus (strain 10, clinical isolate), adapted for growth in vivo by five-fold passaging in mice, was used as the infectious agent. Initially, the lethal dose (LD100) of staphylococcus was determined for this mouse line using the intravenous infection route. The mice deaths were counted daily for 10 days. Thus, the lethal dose (LD100) was defined as 8 × 10^8 CFU/mouse. Afterwards, the mice were seated in cages of 10 heads and were infected intravenously with S. aureus at a lethal dose, and the efficacy of the tested drugs was determined by the ED50 value (i.e., the dose at which 50% of the experimental animals survive). Then, 30 min after infection, the mice were injected intravenously with eremomycin N-(2-((2-fluorobenzyl)amino)ethyl)amide (4e) at single doses from 0.1 to 2.5 mg/kg. or vancomycin at doses from 2.5 to 7.5 mg/kg. As a control dose, a group of untreated animals infected with a lethal dose of S. aureus was present in the experiment. The determination of ED50 of the tested compounds was carried out in one experiment under a single control using the Behrens method.

[3] = mice, IV administration; previous investigation; cited from earlier work
Method: For the characterization of the therapeutic potential of the lead compound 4e, an acute toxicity test for an IV single-dose administration was also carried out (Table 2). […] The drug administration in doses of 130–190 mg/kg led to the death of some animals from 2 to 15 min after injections as a result of cardiac and respiratory arrest against the background of neurotoxicity. […] The quantitative parameters of acute toxicity (LD50 and MTD (LD10) values ...

E. faecium 2 = format: cell-based; details: strain resistant to vancomycin; broth dilution micromethod, CLSI; modal values (or range) of 3–5 independent tests
Source text: (§1) The antimicrobial activity of semisynthetic derivatives of eremomycin 4a–q was studied in comparison with vancomycin on a wide panel of Gram-positive bacteria sensitive (Staphylococcus aureus ATCC 29213, S. aureus R-2, S. haemoliticus 602, S. pneumoniae ATCC 6305, Enteroccus faecium 4, and E. faecalis 559) and resistant to vancomycin (S. aureus 3797, S.aureus 3798, E. faecium 2, E. faecium 3576, E. faecalis 9, E. faecalis 583, and E. gallinarum BΠ 4147), information about the strains given in Table S3. The minimum microbial inhibitory concentration (MIC) for the test compounds was determined by the broth dilution micromethod according to CLSI guidelines, and vancomycin and a standard strain S. aureus ATCC 29213 used as controls (Figure 2 and Tables S4 and S5).
(§2) Table S5. Antibacterial activity of vancomycin and derivatives 4a–q against resistant Gram-positive bacteria.
(§3) Strain/MIC (minimum inhibitory concentration; μg/ml)
(§4) Compound m n R S.aureus 3797 S.aureus 3798 E. faecium 2 E. faecium 3576 E. faecalis 9 E. faecalis 583 E. gallinarum
(§5) *MICs are presented as modal values for 3–5 independently replicate MIC tests for each strain and for the antibiotics. In the range of the obtained MIC
(§6) values, the obtained modal values are highlighted in bold.

E. faecalis 9 = format: cell-based; details: strain resistant to vancomycin; broth dilution micromethod, CLSI; modal values (or range) of 3–5 independent tests
Source text: as §1, §2, §3, §4, §5, §6

E. faecalis 583 = format: cell-based; details: strain resistant to vancomycin; broth dilution micromethod, CLSI; modal values (or range) of 3–5 independent tests
Source text: as §1, §2, §3, §4, §5, §6

S.aureus 3798 = format: cell-based; details: strain resistant to vancomycin; broth dilution micromethod, CLSI; modal values (or range) of 3–5 independent tests
Source text: as §1, §2, §3, §4, §5, §6

E. gallinarum BΠ 4147 = format: cell-based; details: strain resistant to vancomycin; broth dilution micromethod, CLSI; modal values (or range) of 3–5 independent tests
Source text: as §1, §2, §3, §4, §5, §6

E. faecium 3576 = format: cell-based; details: strain resistant to vancomycin; broth dilution micromethod, CLSI; modal values (or range) of 3–5 independent tests
Source text: as §1, §2, §3, §4, §5, §6

S. aureus 3797 = format: cell-based; details: strain resistant to vancomycin; broth dilution micromethod, CLSI; modal values (or range) of 3–5 independent tests
Source text: as §1, §2, §3, §4, §5, §6

E. faecalis 559 = format: cell-based; details: sensitive strain; broth dilution micromethod, CLSI; modal values (or range) of 3–5 independent tests
Source text: as §1
(§7) Table S4. Antibacterial activity of vancomycin and derivatives 4a–q against sensitive Gram-positive bacteria.
(§8) Strain/MIC (Minimum inhibitory concentration, μg/ml)*
(§9) Compound m n R S.aureus АТСС S.aureus R-2 S.haemoliticus S.pneumoniae АТСС E. faecium 4 E. faecalis 559
(§10) *MICs are presented as modal values for 3–5 independently replicated MIC tests for each strain and for the antibiotics. In the range of the
(§11) obtained MIC values, the obtained modal values are highlighted in bold.

S. haemoliticus 602 = format: cell-based; details: sensitive strain; broth dilution micromethod, CLSI; modal values (or range) of 3–5 independent tests
Source text: as §1, §7, §8, §9, §10, §11

E. faecium 4 = format: cell-based; details: sensitive strain; broth dilution micromethod, CLSI; modal values (or range) of 3–5 independent tests
Source text: as §1, §7, §8, §9, §10, §11

S. aureus R-2 = format: cell-based; details: sensitive strain; broth dilution micromethod, CLSI; modal values (or range) of 3–5 independent tests
Source text: as §1, §7, §8, §9, §10, §11

[4] = system: Staphylococcus aureus ATCC 29213; format: cell-based; details: vancomycin-sensitive control strain; broth dilution micromethod, CLSI; modal values (or range) of 3–5 independent tests
Source text: as §1, §7, §8, §9, §10, §11

S. pneumoniae ATCC 6305 = assay: MIC, broth dilution micromethod (CLSI); format: cell-based; details: sensitive strain, modal values (or range) of 3–5 independent tests
Source text: as §1, §7, §8, §9, §10, §11

[5] = mouse staphylococcal sepsis model, single IV

Compound | MIC E. faecium 2 (E. faecium 2) | MIC E. faecalis 9 (E. faecalis 9) | MIC E. faecalis 583 (E. faecalis 583) | MIC S.aureus 3798 (S.aureus 3798) | MIC E. gallinarum ВП 4147 (E. gallinarum BΠ 4147) | MIC E. faecium 3576 (E. faecium 3576) | MIC S.aureus 3797 (S. aureus 3797) | MIC E. faecalis 559 (E. faecalis 559) | MIC S.haemoliticus 602 (S. haemoliticus 602) | MIC E. faecium 4 (E. faecium 4) | MIC S.aureus R-2 (S. aureus R-2) | MIC S.aureus ATCC 29213 [4] | MIC S.pneumoniae ATCC 6305 (S. pneumoniae ATCC 6305) | further results
CN[C@H](CC(C)C)C(=O)N[C@H]1C(=O)N[C@@H](CC(N)=O)C(=O)N[C@H]2C(=O)N[C@H]3C(=O)N[C@H](C(=O)N[C@H](C(=O)O)c4cc(O)cc(O)c4-c4cc3ccc4O)[C@H](O)c3ccc(c(Cl)c3)Oc3cc2cc(c3O[C@@H]2O[C@H](CO)[C@@H](O)[C@H](O)[C@H]2O[C@H]2C[C@](C)(N)[C@H](O)[C@H](C)O2)Oc2ccc(cc2Cl)[C@H]1O [Vancomycin, vancomycin, reference compound] | 8 µg/mL (≈ 5.52 µM) | 8 µg/mL (≈ 5.52 µM) | 32 µg/mL (≈ 22.1 µM) | 8 µg/mL (≈ 5.52 µM) | 8 µg/mL (≈ 5.52 µM) | > 32 µg/mL | 8 µg/mL (≈ 5.52 µM) | 2 µg/mL (≈ 1.38 µM) | 2 µg/mL (≈ 1.38 µM) | 4 µg/mL (≈ 2.76 µM) | 1 µg/mL (≈ 0.69 µM) | 0.25 to 0.5 µg/mL |  | therapeutic index (TI = LD50/ED50) [1]: 128; Survival ([2]; dose 2.5 mg/kg, single IV): 20%; Survival ([2]; dose 3.5 mg/kg, single IV): 40%; Survival ([2]; dose 4.5 mg/kg, single IV): 50%; Survival ([2]; dose 5.5 mg/kg, single IV): 80%; Survival ([2]; dose 6.5 mg/kg, single IV): 90%; Survival ([2]; dose 7.5 mg/kg, single IV): 100%; ED50 [2]: 4.1 mg/kg; LD50 [3]: 525 mg/kg
Eremomycin N-(2-((2-fluorobenzyl)amino)ethyl)amide [4e] | 0.5 µg/mL | 0.03 to 0.06 µg/mL | 0.25 to 0.5 µg/mL | 1 µg/mL | 0.5 µg/mL | 0.5 to 1 µg/mL | 0.5 µg/mL | 0.125 µg/mL | 0.125 µg/mL | 0.25 µg/mL | 0.03 to 0.06 µg/mL | 0.125 µg/mL | 0.01 µg/mL | outcome after the highest dose ([1]; 200 mg/kg, single IV, mice): died immediately; delayed death of animals ([1]; 130–200 mg/kg, single IV, mice, observed 30 days): No delayed death; therapeutic index (TI = LD50/ED50) [1]: 318; LD50 ([1]; mice, single IV injection in 5% glucose, 5 mg/mL, n = 6 per group, Litchfield and Wilcoxon, mean (deviation for p ≤ 0.05)): 175.5 (161.7 ÷ 189.8) * mg/kg; MTD (LD10) ([1]; mice, single IV injection, n = 6 per group, Litchfield and Wilcoxon): 144.7 mg/kg; Survival ([2]; dose 0.25 mg/kg, single IV): 30%; Survival ([2]; dose 0.5 mg/kg, single IV): 50%; Survival ([2]; dose 1 mg/kg, single IV): 60%; Survival ([2]; dose 1.5 mg/kg, single IV): 80%; Survival ([2]; dose 2.5 mg/kg, single IV): 100%; ED50 [2]: 0.55 mg/kg; ED50 ratio: times more active than eremomycin [2, 5]: 3.3 times; ED50 ratio: times more effective than vancomycin [2, 5]: 7.5 times
Eremomycin N-(2-((4-methylbenzyl)amino)ethyl)amide [4c] | 1 µg/mL | 0.03 µg/mL | 1 to 2 µg/mL | 1 µg/mL | 0.5 µg/mL | 1 µg/mL | 0.5 µg/mL | 0.25 µg/mL | 0.25 µg/mL | 0.25 µg/mL | 0.25 µg/mL | 0.25 µg/mL | 0.01 µg/mL | 
Eremomycin N-(2-((2,4-dichlorobenzyl)amino)ethyl)amide [4n] | 2 µg/mL | 0.25 µg/mL | 2 µg/mL | 2 µg/mL | 2 µg/mL | 2 µg/mL | 1 µg/mL | 1 µg/mL | 0.25 µg/mL | 1 µg/mL | 0.25 to 0.5 µg/mL | 0.5 µg/mL | 0.03 to 0.06 µg/mL | 
Eremomycin N-(2-((2,3,4,5,6-pentafluorobenzyl)amino)ethyl)amide [4p] | 1 µg/mL | 0.25 µg/mL | 1 µg/mL | 4 µg/mL | 2 µg/mL | 4 µg/mL | 1 to 2 µg/mL | 1 µg/mL | 0.25 to 0.5 µg/mL | 1 µg/mL | 0.25 µg/mL | 0.25 µg/mL | 0.01 µg/mL | 
Eremomycin N-(2-((3-fluorobenzyl)amino)ethyl)amide [4g] | 0.5 µg/mL | 0.03 µg/mL | 0.5 to 1 µg/mL | 2 µg/mL | 1 µg/mL | 1 µg/mL | 1 µg/mL | 0.25 to 0.5 µg/mL | 0.5 µg/mL | 0.25 µg/mL | 0.06 µg/mL | 0.03 µg/mL | 0.01 µg/mL | 
Eremomycin N-(2-((2-chloro-4-fluorobenzyl)amino)ethyl)amide [4l] | 1 µg/mL | 0.25 µg/mL | 1 µg/mL | 1 µg/mL | 1 µg/mL | 2 µg/mL | 2 µg/mL | 1 µg/mL | 0.125 µg/mL | 0.25 µg/mL | 0.25 µg/mL | 0.125 µg/mL | 0.03 to 0.06 µg/mL | 
